According to US20210100788A1, “PALONOSETRON FORMULATIONS AND USES THEREOF” (LUXENA PHARMACEUTICALS, INC., priority 2014, published 2021):
Counter-ions that a name gives are not always drawn.

Test: Particle size distribution of jet milled palonosetron fine powder by HELOS Particle Size Analyzer
Type: physicochemical
Experimental: Palonosetron HCl was milled with a 2-in pancake Jet Mill and flexible containment. The process air was nitrogen. The jet milling was conducted at Catalent Micron Technologies, Malvern, Pa., USA.
The particle size distribution of the palonosetron fine powder, prepared by jet milling, was measured by HELOS Particle Size Analyzer (Sympatec GmbH, Germany) at Micron Technologies, Inc., Malvern, Pa., USA.
The Particle Size Distribution parameters are: • D10: 0.68 μm • D50: 1.39 μm • D90: 2.89 μm • D95: 3.68 μm • D99.5: 6.92 μm • Cumulative % <9 μm: 100%

For `O=C1c2cccc3c2[C@H](CCC3)CN1[C@@H]1CN2CCC1CC2` [Jet Milled Palonosetron Fine Powder, Palonosetron HCl], the “Cumulative % <9 μm” value was 100%, the D10 was 0.68 μm and the D50 was 1.39 μm. It also gave a D90 of 2.89 μm, a D95 of 3.68 μm and a D99.5 of 6.92 μm.
